The values that follow come from paper PMC5078989, “Targeted inhibition of the COP9 signalosome for treatment of cancer” (Nature Communications, 2016).

The series concerns SU-DHL-1 xenografts. Kind of series: SU-DHL-1 xenograft experiment in SCID-bg mice. The class given is in vivo. The settings on record: 14 days; for T/C value (tumour volume of treated versus control): last day of treatment. The procedure:
For the in vivo study, subcutaneous SU-DHL-1 xenografts were grown in SCID-bg mice and CSN5i-3 was administered orally at doses of 50 mg kg^−1 BID and 100 mg kg^−1 QD over a period of 14 days. […] Tumours were excised at the end of the study and the effect of compound treatment assessed on the pharmacodynamics markers, neddylated Cul1 and Skp2. […] All animal experiments were approved by the Kantonales Veterinäramt Basel-Stadt and were conducted in accordance with the Eidgenössisches Tierschutzgesetz and the Eidgenössische Tierschutzverordnung. SU-DHL-1 cells (1 × 10^7; DSMZ) were implanted subcutaneously into SCID-bg female 7–9-week-old mice (Taconic) and developing tumours were propagated once before subcutaneous transplantation for efficacy studies. Treatment was initiated when tumours reached 150–200 mm^3 volume. […] Randomization was conducted by using an internal computer software (Indigo). CSN5i-3 was formulated in 100 mM citrate buffer pH 3, PEG300, Kolliphor HS15, 1 N HCl (56:30:10:4%w/w). Tumour response is reported as percentage change in tumour volume at the last day of treatment relative to start of treatment. […] At day 10 of treatment blood, samples were taken and concentrations of CSN5i-3 were determined at indicated time points post dose using ultra-high-pressure liquid chromatography/tandem MS. At the end of treatment, tumours were excised and snap frozen in liquid nitrogen. Frozen tumours were pulverized using CryoPrep (Covaris Inc.) and protein lysates were prepared from tumour powder for immunoblot analysis.

[1] abbreviates: 50 mg kg^−1 BID and 100 mg kg^−1 QD oral.

SMILES strings stand for the structures.

Take `CC(C)n1nc(C(F)F)cc1C(=O)Nc1ccc([C@H]2[C@@H](O)CCCc3cncn32)c(-c2ccccc2)c1` [CSN5i-3, 3-(Difluoromethyl)-N-(6-((5S,6S)-6-hydroxy-6,7,8,9-tetrahydro-5H-imidazo[1,5-a]azepin-5-yl)-[1,1′-biphenyl]-3-yl)-1-isopropyl-1H-pyrazole-5-carboxamide]: under setting [1], the “tolerability based on body weight” value was “well tolerated” and the tumour growth outcome is “Tumour stasis”. Also, the “T/C value (tumour volume of treated versus control)” value (50 mg kg^−1 BID oral) is 22%. The “T/C value (tumour volume of treated versus control)” value (100 mg kg^−1 QD oral) is listed as 25%.
